Data set [1] has as its system HGC-27. Briefly: Induction of apoptosis in human HGC-27 cells transfected with pcDNA3.1-Drp1 plasmid to overexpress DRP1 assessed as late apoptotic cells measured after 24 hrs by AnnexinV-FITC/PI staining based flow cytometry method (reference value: 2.0%). It is filed as functional. Background: A flow cytometer gives signals particle by particle.
Data set [2] can be described thus: Toxicity in nude mouse xenografted with human AGS cells assessed as effect on body weight at 10 to 20 mg/kg, ip administered every other day and monitored every 3 days. The data set is classed as organism-based. Conditions: in vivo, 72 h, dose 10-20 mg/kg, time 3 day. On the technique in general: Xenograft models place foreign cells or tissue in a host animal.

For data set [3], the system named is AGS. Briefly: Induction of apoptosis in human AGS cells transfected with pcDNA3.1-Drp1 plasmid to overexpress DRP1 assessed as early apoptotic cells and measured after 24 hrs by AnnexinV-FITC/PI staining based flow cytometry method (reference value: 2.1 %). The data set is classed as functional.
Data set [4] concerns HGC-27. Briefly: Induction of apoptosis in human HGC-27 cells assessed as early apoptotic cells measured after 24 hrs by AnnexinV-FITC/PI staining based flow cytometry method (reference value: 1.6%). It is filed as functional.
Data set [5] has as its system HGC-27. The data set can be described thus: Induction of mitochondrial dysfunction in human HGC-27 cells assessed as decrease in mitochondrial membrane potential measured after 24 hrs by JC-1 staining based flow cytometry. It is filed as functional, cell-based. Conditions: DDE = dose-dependent effect.
Data set [6] concerns AGS. Briefly: Inhibition of ERK signalling pathway in human AGS cells assessed as downregulation of p-ERK levels at 0 to 10 uM and measured after 24 hrs by western blot analysis. The data set is classed as cell-based. Conditions: dose 0-10 µM. In general terms: Immunoblotting shows a protein as a band on a membrane.
For data set [7], the system named is HGC-27. Briefly: Antiproliferative activity against human HGC-27 cells assessed as reduction in cell growth measured after 24 hrs by CCK8 assay. The data set is classed as functional, cell-based. Conditions: HGC-27, 24 h.
For data set [8], the system named is AGS. The data set can be described thus: Antitumor activity against human AGS cells xenografted in nude mouse assessed as suppression of tumor burden at 10 to 20 mg/kg, ip administered every other day and monitored every 3 days. The data set is classed as functional, organism-based. Conditions: dose 10-20 mg/kg, time 3.0 day.
Data set [9] concerns AGS. Briefly: Induction of apoptosis in human AGS cells assessed as necrotic cells measured after 24 hrs by AnnexinV-FITC/PI staining based flow cytometry method (reference value: 0.1%). The data set is classed as functional.
The test system of data set [10] is HGC-27. Briefly: Inhibition of mitochondrial fission in human HGC-27 cells assessed as downregulation of p-DRP1 at 0 to 10 uM measured after 24 hrs by Western blot analysis. It is filed as functional, cell-based. Conditions: dose 0-10 µM.
Data set [11] deals with HGC-27. Briefly: Induction of cell cycle arrest in human HGC-27 cells assessed as accumulation of cells at G0/G1 phase at 8 uM incubated for 24 hrs propidium iodide-A staining-based flow cytometric analysis (reference value: 45.21%). The data set is classed as functional.
Data set [12] concerns AGS. The data set can be described thus: Inhibition of colony formation of human AGS cells assessed as reduction in colony number at 0 to 10 uM measured after 24 hrs by crystal violet staining assay. It is filed as functional, cell-based. Conditions: dose 0-10 µM.
Data set [13] concerns AGS. Briefly: Inhibition of mitochondrial fission in human AGS cells assessed as reduction in mitochondrial elongated fragments at 0 to 6 uM measured after 24 hrs by mitotracker based confocal microscopy. It is filed as functional, cell-based. Conditions: dose 0-6 µM.
In data set [14] the test system is HGC-27. The data set can be described thus: Induction of apoptosis in human HGC-27 cells assessed as late apoptotic cells at 8 uM measured after 24 hrs by AnnexinV-FITC/PI staining based flowcytometry method (reference value: 5.4%). The data set is classed as functional.
Data set [15] relates to AGS. The data set can be described thus: Induction of apoptosis in human AGS cells assessed as viable cells at 10 uM measured after 24 hrs by AnnexinV-FITC/PI staining based flowcytometry method (reference value: 95.2%). Particulars: read-out: Activity. It is filed as functional.

The structures appear in SMILES notation. Activity calls are given as the source filed them. The calls are words filed in the database; no cut-off is given here.

This note sets out measurements from ChEMBL document CHEMBL5126640, “Sanggenon C Suppresses Tumorigenesis of Gastric Cancer by Blocking ERK-Drp1-Mediated Mitochondrial Fission” (J Nat Prod, 2022).

As a reminder, the IC50 is the concentration that gives 50% inhibition. Regarding `CC(C)=CCC12Oc3cc(O)ccc3C1(O)Oc1cc(O)c([C@H]3C=C(C)C[C@H](c4ccc(O)cc4O)[C@H]3C(=O)c3ccc(O)cc3O)c(O)c1C2=O` (stereo not given in full), the Activity in the data set on HGC-27 [1] is 1.8%; in data set [2], “Non-Toxic”; in the data set on AGS [3], 2.8%; in the data set with HGC-27 [4], 4.3%; in the data set with HGC-27 [5], “Dde”; in the data set with AGS [9], 0.1%. For the same compound, the values for the Activity in the data set with HGC-27 [11] and in the data set with HGC-27 [14] were 62.4% and 11.1%, respectively. In addition, the inhibition entry in the data set on AGS [6], in the data set with HGC-27 [10], in the data set with AGS [12] and in the data set on AGS [13] was “Active” throughout. Further, in the data set on HGC-27 [7], the concentration for half-maximal inhibition (IC50) was 9.13 µM. Further, the outcome in the data set on AGS [8] was Active. Besides, the viability at 10 µM with AGS [15] stood at 81.2%.
